The source of these data is patent US20100285957A1, “THIAZOLYLOXYPHENYLAMIDINES OR THIADIAZOLYLOXYPHENYLAMIDINES AND THEIR USE AS FUNGICIDES” (Bayer CropScience AG, priority 2007, published 2010).

By logP is commonly meant a log measure of how a compound divides between an organic and an aqueous phase.

A short description of data set [1]: log P determination (neutral / acidic, pH 2.3).
A further data set concerns Uromyces appendiculatus. Put plainly: Uromyces test (beans)/protective. The class given is in vivo. Conditions: 240 h, 100 ppm active substance, protective, evaluation 10 days after inoculation, read-out: degree of effectiveness. In a few lines:
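Young bean plants were sprayed with the formulated compound at the stated application rate, dried, then inoculated with U. appendiculatus spores. They were held 1 day at ~20 °C and 100% RH, then in a greenhouse at ~21 °C and ~90% RH. Efficacy was scored 10 days post-inoculation: 0% equals the control, 100% means no infestation.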

In a further data set the test system is Sphaerotheca fuliginea. Nature of the data set: Sphaerotheca test (cucumber)/protective. Particulars: Podosphaera fuliginea, 168 h, 100 ppm active substance, protective, evaluation 7 days after inoculation, read-out: degree of effectiveness. It counts as in vivo. In a few lines:
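Young cucumber plants were sprayed protectively with the formulated compound at the stated rate, dried, then inoculated with S. fuliginea spores. Kept in greenhouse at ~23° C. and ~70% relative humidity; efficacy scored 7 days post-inoculation (0% = untreated control, 100% = no infestation).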

Another data set deals with Phakopsora pachyrhizi. Nature of the data set: Phakopsora test (soya)/protective. Particulars: 264 h, 100 ppm active substance, protective, evaluation 11 days after inoculation, read-out: degree of effectiveness. It counts as in vivo. On the procedure:
Phakopsora Test (Soya)/Protective
(§1) To prepare a suitable active substance composition, 1 part by weight of active substance is mixed with the given amounts of solvent and emulsifier and the concentrate is diluted to the desired concentration using water.
For the testing of protective effectiveness, young plants are sprayed with the active substance composition in the application rate given. After the spray coating has been dried on, the plants are inoculated with an aqueous suspension of the spores of Phakopsora pachyrhizi and then remain in an incubation chamber at approximately 20° C. and 80% relative humidity for 1 day.
Evaluation is carried out 11 days after the inoculation. In this connection, 0% means a degree of effectiveness corresponding to that of the control, while a degree of effectiveness of 100% means that no infestation is observed.

Another data set in a line: physchem. Conditions: pH 2.3.
The next data set deals with Pyrenophora teres. Put plainly: Pyrenophora teres test (barley)/protective. The class given is in vivo. Conditions: 500 ppm active substance, protective, evaluation 7-9 days after inoculation, read-out: degree of effectiveness.
The test system of another data set is Cochliobolus miyabeanus. Put plainly: Cochliobolus test (rice)/protective. It counts as in vivo. Particulars: 250 ppm active substance, protective, evaluation 4 days after inoculation. On the procedure:
Cochliobolus Test (Rice)/Protective
as §1
For the testing of protective effectiveness, young plants are sprayed with the active substance composition in the application rate given. After the spray coating has been dried on, the plants are inoculated with an aqueous suspension of the spores of Cochliobolus miyabeanus and then remain in an incubation chamber at approximately 25° C. and 100% relative humidity for 1 day.
Evaluation is carried out 4 days after the inoculation. In this connection, 0% means a degree of effectiveness corresponding to that of the control, while a degree of effectiveness of 100% means that no infestation is observed.

The next data set has as its system Alternaria solani. Put plainly: Alternaria test (tomato)/protective. Particulars: 168 h, 500 ppm active substance, protective, evaluation 7 days after inoculation, read-out: degree of effectiveness. The class given is in vivo. In a few lines:
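Young tomato plants sprayed with emulsified active substance at the stated rate, inoculated 1 day later with Alternaria solani spores. Held 24 h at 100% RH and 20 °C, then 96% RH, 20 °C. Scored 7 days post-inoculation; 0% = untreated control, 100% = no infestation.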

Take `Cc1cc(Oc2nc(C3CC3)ns2)c(C)cc1/N=C/N1CCCCC1` [Compound 3, 4-[(3-Cyclopropyl-1,2,4-thiadiazol-5-yl)oxy]-2,5-dimethyl-N-[(1E)-piperidin-1-ylmethyl-idene]aniline]: the “log P acidic” value in data set [1] is 1.75.

As for `Cc1cc(Oc2nc(C3CC3)ns2)c(C)cc1/N=C/N1CCSCC1` [Compound 4, 4-[(3-Cyclopropyl-1,2,4-thiadiazol-5-yl)oxy]-2,5-dimethyl-N-[(1E)-thiomorpholin-4-ylmethyl-idene]aniline], the “log P acidic” value in data set [1] came to 1.73.

Take `Cc1cc(Oc2nc(C3(Cl)CC3)cs2)c(C)cc1/N=C/N1CCCCC1` [Compound 6, 4-{[4-(1-Chlorocyclopropyl)-1,3-thiazol-2-yl]oxy}-2,5-dimethyl-N-[(1E)-piperidin-1-ylmethyl-idene]aniline]: the “log P neutral” value in data set [1] (neutral) stood at 5.49.

Take `Cc1cc(Oc2nc(C3(C)CC3)ns2)c(C)cc1/N=C/N1CCCCC1` [Compound 11, 5-Dimethyl-4-{[3-(1-methylcyclopropyl)-1,2,4-thiadiazol-5-yl]oxy}-N-[(1E)-piperidin-1-yl-methylidene]aniline]: in data set [1], the “log P acidic” value turned out to be 2.13.

Regarding `Cc1cc(Oc2nc(C3(C)CC3)cs2)c(C)cc1/N=C/N1CCCCC1` [Compound 23, 2,5-Dimethyl-4-{[4-(1-methylcyclopropyl)-1,3-thiazol-2-yl]oxy}-N-[(1E)-piperidin-1-ylmethyl-idene]aniline], in data set [1], the “log P acidic” value was 2.05.

In the case of `CCN(C)C=Nc1cc(C)c(Oc2nc(C3(C)CC3(Cl)Cl)ns2)cc1C` (stereo not shown) [Compound 25, N′-(4-{[3-(2,2-Dichloro-1-methylcyclopropyl)-1,2,4-thiadiazol-5-yl]oxy}-2,5-dimethylphenyl)-N-ethyl-N-methylimidoformamide], the pest or weed control at 100 ppm with Uromyces appendiculatus was at least 70%; with Sphaerotheca fuliginea, at least 70%; in the data set on Phakopsora pachyrhizi it was at least 80%. In addition, in “physchem”, the logP turned out to be 2.03. Further, the pest or weed control at 500 ppm in the data set on Pyrenophora teres and in the data set with Alternaria solani was at least 70% in each case. Besides, the degree of effectiveness in the data set on Cochliobolus miyabeanus is given as at least 80%.

With “[5-Chloro-4-(1-methylcyclopropyl)-1,3-thiazol-2-yl]oxy-2,5-dimethylaniline”, the “log P (pH 2.3)” value amounted to 4.13.
